Test results published in patent publication US10300069B2, “Carbon monoxide-releasing molecules for therapeutic applications and methods of making and using thereof” (Georgia State University Research Foundation, Inc., priority 2014, dated 2019).

Assays:
[1] = tested on: RAW cells; experiment: WST-1 cytotoxicity test on RAW cells; type: cell-based, mouse
Experimental: In order to assess the cytotoxic effect of the reactants, 1 and 6a, as well as product 31, on RAW cells, the cytotoxicity test WST-1 was performed to examine induction by TPCPD (1) and BCN (6a) over varying concentrations and periods of time (FIGS. 3A-3C).
Different concentrations of each molecule were assessed: from 0.78 to 100 μM for 1 and 31 and 7.8 to 1000 μM for 6a. Different time points were assessed (1 h, 4 h, 8 h and 24 h). Triton 0.1% was used as a positive control of cytotoxicity and the subsequent value was established as 100% of cytotoxicity.

[2] = Completion time of reaction of TPCPD with cyclooctynes at 50 mM; type: physicochemical; conditions: 50 mM concentration
[3] = Water solubility of mannose-modified reactants; type: physicochemical
[4] = MTT cytotoxicity test of mannose-modified reactants (FIG. 4)
Experimental: The cytotoxicity test, MTT assay, was performed to define the concentration using TPCPD-M (57, 1 mM) and BCN-M (61, 1 mM) (FIG. 4).

[5] = tested on: TNF-α; experiment: LPS-induced accumulation of TNF-α by ELISA in RAW 264.7 culture supernatant; type: cell-based, mouse; conditions: tested separately (control)
Experimental: RAW264.7 cell were seeded in 6-well plates and incubated overnight. Cells were then stimulated with LPS (10 mg/mL) for 1 h. TPCPD (1) and BCN (6a) (different concentrations) were added to well after 1 hr LPS treatment (same for all wells). As a control, the product (31) was used at same concentration as the anti-inflammation test to confirm that the suppression of TNF-α is result of CO instead of the reagent (or product) themselves (compounds 1, 6a, and 31). TNF-α secretion in the medium was measured with an eBioscience kit (mouse TNF-α ELISA kit, eBioscience, San Diego, Calif., USA).
TNF-α is a major pro-inflammatory cytokine, mainly secreted from macrophages and dendritic cells. Its production is induced in vitro by stimulation with LPS. The accumulation of TNF-α was assessed by ELISA in the culture supernatant of the macrophage cell line, RAW 264.7 (FIG. 5). The cells were stimulated for 1 h and then co-treated by […] for 24 h. […] A 50% decrease of the LPS-induced accumulation of TNF-α was observed after co-treatment with TPCPD-M and BCN-M at the respective concentration of 1 mM+1 mM.
As a control, the effect of the TPCPD-M and BCN-M were tested separately (FIG. 5).

[6] = Intramolecular DARinv (CO release) in DMSO/PBS (7.4) at 37° C.; type: physicochemical
Source text: (§1) Then the reaction mixture was extracted with ethyl acetate, and the obtained organic layer was dried with anhydrous Na2SO4, filtered and concentrated.
Then the reaction mixture was extracted with ethyl acetate, and the obtained organic layer was dried with anhydrous Na2SO4.
as §1

[7] = 8 h, within the concentration range studied

Compound: OC[C@@H]1[C@H]2CCc3c(c(-c4ccccc4)c(-c4ccccc4)c(-c4ccccc4)c3-c3ccccc3)CC[C@@H]12 [compound 31]
- cytotoxicity [1, 7]: Neither 6a (FIG. 3B) and nor the product (FIG. 3C) displayed any sign of cytotoxicity
- cytotoxicity ([1]; 24 h, within the concentration range tested): not cytotoxic

Compound: OCC1[C@H]2CCC#CCC[C@@H]12 (stereo partly drawn) [BCN]
- time in which the reaction with TPCPD finished [2]: ≤ 5 min
- cytotoxicity [1, 7]: Neither 6a (FIG. 3B) and nor the product (FIG. 3C) displayed any sign of cytotoxicity
- cytotoxicity ([1]; 24 h, 1 mM): 60%

Compound: C1#CCCCCCC1 [cyclooctyne]
- time in which the reaction with TPCPD finished [2]: 15 min

Compound: fluorocyclooctyne [fluorocycolooctyne]
- time after which the reaction with TPCPD had not reached completion [2]: > 24 h

Compound: O=C(NCCOCCOCCOC1OC(CO)C(O)C(O)C1O)OCC1[C@H]2CCC#CCC[C@@H]12 (stereo partly drawn) [compound 61]
- water solubility [3]: water soluble
- cytotoxicity (MTT) ([4]; 24 h of treatment, within 1 mM concentration): none of the compounds led to any cytotoxicity
- inhibition of the LPS-induced accumulation of TNF-α [5]: do not lead to any inhibition

Compound: C#CCOc1ccccc1C1=C2C(=C(C(=O)N3CCOCC3)C1=O)c1cccc3cccc2c13 [compound 51]
- incubation time after which the intramolecular DARinv reaction was finished [6]: 16 h

Compound: NCC(=O)O.[C-]#[O+].[C-]#[O+].[C-]#[O+].[Cl][Ru] [CORM3, reference compound]
- decrease in cell viability ([4]; 1 mM concentration): 30%

Compound: O=C1C(c2ccccc2)=C(c2ccccc2)C(c2ccccc2)=C1c1ccccc1 [TPCPD]
- toxicity (cytotoxicity, Triton 0.1% = 100%) ([1]; 8 h, 50 μM): 44%
- toxicity (cytotoxicity, Triton 0.1% = 100%) ([1]; 8 h, 100 μM): 49%
- cytotoxicity ([1]; 24 h, concentrations higher than 12.5 μM): more than 50%
